Test results published in patent publication US20230406849A1, “KRAS INHIBITORS FOR TREATMENT OF CANCERS” (TYLIGAND BIOSCIENCE (SHANGHAI) LIMITED, priority 2020, published 2023).
Like-named read-outs stand apart in the source and are kept apart here.

How the values were obtained:
[1] = system: human non-small cell lung cancer NCI-H358 xenograft; assay: Antitumor activity in NCI-H358 xenograft mouse model; assay type: in vivo, NPSG mice; details: for TGI(%) / Tumor volume (mm^3) (day 14): NPSG mice, gavage once daily 10 mg/kg, day 14
Protocol: Tumor growth inhibitory activity of the compounds of the present disclosure was evaluated and verified in a human non-small cell lung cancer NCI-H358 xenograft mouse model.
[Test materials]: NCI-H358 cell line carrying KRAS G12C mutation, provided by KYinno Biotechnology Co., Ltd. (from ATCC, Cat #CRL-5807). NPSG mice, female, provided by Beijing Phenotek Biotechnologies Inc.
[Experimental procedure]: 5×10^6 NCI-H358 cells (containing 50% Matrigel) were inoculated subcutaneously on the right flank of 6-8 weeks old female NPSG mice, with the inoculation volume of 0.1 mL. When the average tumor size reached 160-220 mm^3, the mice were grouped randomly according to tumor size and body weight, upon which the mice were treated with compounds on the same day designated as Day 0. The mice were gavage administrated once daily at 10 mg/kg or solvent control (50 mM citrate buffer containing 10% cyclodextrin, pH5.0). Tumor volume and body weight were measured twice a week during the study. The tumor volume was calculated by the formula V=D×d×d/2, wherein D and d refer to the long and short diameter of the tumor respectively.
In addition, using the same materials and procedures as above, the tumor inhibition activity of Example 9 at different doses in the above-mentioned non-small cell lung cancer mouse model and its effect on body weight were also investigated.

[2] = system: human non-small cell lung cancer cells NCI-H358 with KRas G12C mutation; assay: NCI-H358 cell proliferation, CellTiter-Glo Luminescent Cell Viability Assay; assay type: cell-based; details: for inhibition at 1 µM: 1 μM compound, read-out: Inhibition rate % (1 μM)
Text: This assay verified the inhibitory activity of the compounds of the present disclosure on the proliferation of human non-small cell lung cancer cells NCI-H358 with KRas G12C mutation by using Promega's CellTiter-Glo® Luminescent Cell Viability Assay kit.
[Test materials]: NCI-H358 cell line (Cell Resource Center, IBMS, CAMS/PUMC, Item number: 3111C0001CCC000470), 96-well transparent flat-bottomed black-walled cell culture plate (Greiner Bio one, Cat #655096), RPMI-1640 Medium (GE, Cat #SH30809.01), Fetal Bovine Serum FBS (Thermo Fisher, Cat #10099-141), CellTiter-Glo® Luminescent Cell Viability Assay Kit (Promega, Cat #G7573), PBS (Solarbio, Cat #P1020), Trypsin (Thermo Fisher, Cat #25200072), DMSO (Sigma, Cat #D2650), Methyl cellulose (SIGMA, Cat #9004-67-5).
[Experimental procedure]: 180 μL of cell suspension (RPMI1640 solution with 10% FBS and 1% methyl cellulose) was charged to a 96-well cell culture plate at a density of 1500 cells/well. A control group containing no cells, no compounds and only 3D complete medium (RPMI 1640 solution with 1! Methyl cellulose and 10% FBS) (i.e. culture medium control) and a control group containing no compounds but cells (i.e. cell control) were set. AMG510 or the following reference compounds were used as positive controls. The cell plate was placed in a cell incubator overnight. A 10-fold drug solution (RPMI1640 solution with 10% FBS and 1% DMSO) was prepared at a concentration of 10 μM, and 20 μL of this solution was added to each well of the 96-well plate seeded with cells, so that the final concentration of the compounds in each well was 1 μM, and the DMSO concentration […] replicate wells were set up for each compound. The solutions of AMG510 or the following reference compounds were prepared in the same way and added to the positive control wells. The cell plate was placed in a cell incubator and cultured for 120 h. For endpoint detection, the CellTiter-Glo reagent was melted, and the cell plate was moved to room temperature to equilibrate for 30 minutes, added with 100 µL of CellTiter-Glo to each well, and shaken on an orbital shaker for 5 minutes to fully lyse the cells. The plate was kept at room temperature for 20 minutes to stabilize the luminescence signal, and the luminescence value of each well was full wavelength scanned with a multi-functional microplate reader (Molecular Devices, Spectramax M3 microplate reader).
[Test samples] The compounds of Examples 1-39, and reference compound A
[Data Analysis] The following formula was used to calculate the cell inhibition rate under the action of each concentration of the compounds:
Inhibition rate %=[1−(LumDrug to be tested−LumCulture medium control)/(LumCell control−LUMCulture medium control)]×100%
IC50 values were calculated using GraphPad Prism 7.0 software, nonlinear Sigmoidal regression was used to fit the data to obtain a dose-response curve.

[3] = Cassette pharmacokinetic experiment in rats (IV); assay type: in vivo; details: rat, plasma, 1 mg/kg, male SD rats, tail vein IV, 1 mg/mL each compound at 1 mL/kg
Text: 2.1 Pharmacokinetic Properties of Some Compounds of the Present Disclosure Evaluated by Cassette Pharmacokinetic Experiments in Rats.
[Test materials]: Male SD rats, age: 6-8 weeks, body weight 220-250 g, purchased from Zhaoyan (Suzhou) New Drug Research Center Co., Ltd.; Tolbutamide (Aladdin, Cat #H1401054); Sulfobutyl-(Captisol, Shandong Binzhou Zhiyuan Biological Technology Co., Ltd, Cat #20191013); Propylene glycol (15)-stearate (Solutol, Meilun Bio, Cat #50206A); DMSO (Vetec Company, Cat #WXBD0293V); acetonitrile (Sigma-Aldrich, Cat #WXBD1744V); Methanol (Sigma-Aldrich, Cat #WXBD2831V).
[Experimental procedure]: The compound combination was prepared in a solvent of 5% DMSO/10% Solutol/85% (20% Captisol), and the final concentration of each compound was 1 mg/mL. The SD rats were treated with the compound preparation in 1 mL/kg by tail vein IV injection, and blood samples were collected at the time points of 5 min, 15 min, 30 min, 1 h, 2 h, 4 h, 8 h, and 24 h via external jugular vein puncture, centrifuged at low temperature for 20 minutes to collect plasma samples, which were stored at −80° C. until analysis.
[Sample analysis]: Establishing LC-MS/MS compound analysis method
Standard curve preparation: 20 μL of lmg/mL DMSO stock solution for each compound was aspirated and transferred to […] of 50% methanol working solution, and the resulting solution was serially diluted to obtain a standard curve working solution with concentrations of 20000, 10000, 5000, 1000, 500, 100, 50, 20 and […]. Then 5 µL of this standard curve working solution was mixed with 45 μL rat blank plasma to give a standard curve with concentrations of 2000, 1000, 500, 100, 50, 10, 2 and 1 ng/mL for quantification of unknown samples.
Sample pretreatment: 50 μL of unknown plasma sample or standard curve sample was mixed with 250 μL of acetonitrile containing internal standard as a precipitant. The plasma protein was precipitated, extracted for test compounds, and centrifuged at low temperature for 20 minutes. The supernatant was taken, mixed with 0.1% formic acid aqueous solution, and 5 μL of the resulting solution was aspirated for blood concentration analysis.
[Data processing]: A standard curve was plotted using mass spectrometry software, to quantify unknown samples, and pharmacokinetic parameters are calculated by Winnonlin 8.2 using the drug concentration of unknown samples at each time point.

Row | IC50 ([2]; 120 h, read-out: IC50) | IC50 ([2]; read-out: IC50 value) | AUC(0-t) [3] | clearance [3] | half-life [3] | Structure (SMILES) | TGI(%) [1] | Tumor volume (mm^3) (day 14) [1] | inhibition at 1 µM ([2]; 120 h) | effect on body weight ([1]; different doses, FIG. 1) | tumor inhibition activity ([1]; different doses, FIG. 1)
1 | 18 nM | < 20 nM |  |  |  | C=CC(=O)N1CCN(c2c(C#N)cnc3c(F)c(-c4ccc(F)c5sc(N)nc45)c(Cl)cc23)C[C@H]1C [Example 8, 4-((R)-4-acryloyl-3-methylpiperazin-1-yl)-7-(2-amino-7-fluorobenzo[d]thiazol-4-yl)-6-chloro-8-fluoroquinoline-3-carbonitrile] | 67% | 519.2 mm^3 | 94% |  | 
2 | 11 nM |  | 623 ng·h/mL | 27.1 mL/min/kg | 60 min | C=CC(=O)N1CCN(c2ncnc3c(F)c(-c4ccc(F)c5sc(N)nc45)c(Cl)cc23)CC1 [Ref. Comp. A, reference compound] |  |  | 96.9% |  | 
3 |  |  | 231 ng·h/mL | 71.8 mL/min/kg | 29.4 min | C=CC(=O)N1CCN(c2nc(=O)n(-c3c(C)ccnc3C(C)C)c3nc(-c4c(O)cccc4F)c(F)cc23)[C@@H](C)C1 (atropisomer, axis not shown) [AMG510, reference compound] | 66% | 525.1 mm^3 |  |  | 
4 | 8.6 nM | < 20 nM | 1050 ng·h/mL | 15.8 mL/min/kg | 40.2 min | C=CC(=O)N1CCN(c2c(C#N)cnc3c(F)c(-c4ccc(F)c5sc(N)nc45)c(Cl)cc23)CC1 [Example 9, 4-(4-Acryloylpiperazin-1-yl)-7-(2-amino-7-fluorobenzo[d]thiazol-4-yl)-6-chloro-8-fluoroquinoline-3-carbonitrile] |  |  | 98.8% | without significant side effects on body weight | excellent tumor inhibition activity
